Each structure is given as a SMILES string. Read-outs that look alike come from different tables or passages of the source.

Data set [1] has as its system pregnant rats and rabbits. As to the kind of experiment: Animal reproduction studies, oral paliperidone during organogenesis. It counts as in vivo. To be noted: period of organogenesis, mg/m^2.
The nature of data set [2]: Study with oral immediate-release 14C-paliperidone (excretion, metabolism). Type of data set: in vivo.
Data set [3] concerns the target central dopamine D2 receptor (Homo sapiens, UniProt P14416). Description: In vitro receptor binding affinity. Particulars: antagonist.
For data set [4], the system named is cholinergic muscarinic receptors. Description: In vitro receptor binding affinity.
In another data set the test system is bacteria. As to the kind of experiment: In vitro Ames bacterial reverse mutation test. Type of data set: cell-based.
The subject of another data set is rat bone marrow. Description: In vivo rat bone marrow micronucleus test.
In data set [5] the target is central Dopamine type 2 (D2) receptor (Homo sapiens, UniProt P14416). Particulars: at paliperidone plasma concentration 7.5 ng/mL; cited from earlier work.
central Dopamine type 2 (D2) receptor, sequence (P14416 whole entry): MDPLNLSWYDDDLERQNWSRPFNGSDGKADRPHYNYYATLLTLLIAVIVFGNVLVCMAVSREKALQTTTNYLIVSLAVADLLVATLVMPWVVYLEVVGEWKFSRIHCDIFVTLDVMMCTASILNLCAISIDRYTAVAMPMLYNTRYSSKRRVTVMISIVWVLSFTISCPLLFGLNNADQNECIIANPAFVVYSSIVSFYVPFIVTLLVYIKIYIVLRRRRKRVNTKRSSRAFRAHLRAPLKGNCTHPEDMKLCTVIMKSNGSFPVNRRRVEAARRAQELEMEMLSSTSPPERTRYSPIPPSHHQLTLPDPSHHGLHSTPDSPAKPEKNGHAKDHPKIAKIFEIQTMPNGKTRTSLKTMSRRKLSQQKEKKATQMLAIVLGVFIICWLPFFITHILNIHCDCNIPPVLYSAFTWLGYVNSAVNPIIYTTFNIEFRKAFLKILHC
Another data set in a line: Plasma protein binding. Type of data set: in vitro ADME. To be noted: racemic.
A further data set has as its system rats. Description: Oral paliperidone study of fertility in rats. It counts as in vivo. The protocol: These parameters were not affected at an oral dose of 0.63 mg/kg, which is half of the oral MRHD of 12 mg based on mg/m^2 body surface area.
(§1) Serum testosterone and sperm parameters partially recovered, but remained decreased after the last observation (two months after treatment was discontinued).

A short description of data set [6]: Pharmacokinetics in specific populations (oral paliperidone studies, population PK modelling). It counts as in vivo, human. To be noted: elderly subjects. The text has this:
No specific pharmacokinetic studies have been performed with […] in specific populations. All the information is obtained from studies with oral paliperidone or is based on the population pharmacokinetic modelling of oral paliperidone and […].

A short description of data set [7]: Drug interaction studies with oral paliperidone. Type of data set: in vivo, human. The source says:
Higher doses of paroxetine have not been studied.
This interaction has not been studied with INVEGA HAFYERA.

In another data set the target is β2-adrenergic receptor (Homo sapiens, UniProt P07550). Description: In vitro receptor binding affinity.
β2-adrenergic receptor, sequence (P07550 whole entry): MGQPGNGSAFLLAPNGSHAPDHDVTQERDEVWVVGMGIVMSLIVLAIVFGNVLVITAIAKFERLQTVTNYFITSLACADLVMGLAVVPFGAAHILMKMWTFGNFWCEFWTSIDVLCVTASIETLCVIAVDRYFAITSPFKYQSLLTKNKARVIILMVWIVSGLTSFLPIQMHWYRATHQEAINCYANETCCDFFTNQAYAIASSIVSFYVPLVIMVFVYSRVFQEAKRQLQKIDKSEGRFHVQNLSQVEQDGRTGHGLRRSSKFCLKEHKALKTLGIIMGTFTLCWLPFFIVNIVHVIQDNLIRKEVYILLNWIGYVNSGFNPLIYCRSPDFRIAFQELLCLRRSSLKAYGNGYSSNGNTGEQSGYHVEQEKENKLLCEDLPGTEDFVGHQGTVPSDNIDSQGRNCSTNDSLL
A further data set addresses α1 adrenergic receptor. Description: In vitro receptor binding affinity. Particulars: antagonist.
The next data set addresses α2 adrenergic receptor. As to the kind of experiment: In vitro receptor binding affinity. To be noted: antagonist.
For data set [8] the following is noted: human, in vivo, po. The source says:
Observed signs and symptoms included extrapyramidal symptoms and gait unsteadiness.

Another data set has as its target P-glycoprotein (P-gp) (Homo sapiens, UniProt P08183). Description: P-gp substrate and inhibition studies in vitro. It counts as in vitro ADME.
A further data set concerns the target β1-adrenergic receptor (Homo sapiens, UniProt P08588). Description: In vitro receptor binding affinity.
In data set [9] the test system is cytochrome P450 isozymes, including CYP1A2, CYP2A6, CYP2C8/9/10, CYP2D6, CYP2E1, CYP3A4, and CYP3A5. Description: Inhibition of drug metabolism in human liver microsomes. It counts as in vitro ADME.
A further data set is described as follows: clinical. To be noted: human, in vivo, po, 4 mg.
For a further data set, the system named is juvenile rats. Description: Juvenile rat study with oral paliperidone. Type of data set: in vivo.
A further data set deals with serotonin 5HT2A receptor (Homo sapiens, UniProt P28223). Description: biochemical.
serotonin 5HT2A receptor, sequence (P28223 whole entry): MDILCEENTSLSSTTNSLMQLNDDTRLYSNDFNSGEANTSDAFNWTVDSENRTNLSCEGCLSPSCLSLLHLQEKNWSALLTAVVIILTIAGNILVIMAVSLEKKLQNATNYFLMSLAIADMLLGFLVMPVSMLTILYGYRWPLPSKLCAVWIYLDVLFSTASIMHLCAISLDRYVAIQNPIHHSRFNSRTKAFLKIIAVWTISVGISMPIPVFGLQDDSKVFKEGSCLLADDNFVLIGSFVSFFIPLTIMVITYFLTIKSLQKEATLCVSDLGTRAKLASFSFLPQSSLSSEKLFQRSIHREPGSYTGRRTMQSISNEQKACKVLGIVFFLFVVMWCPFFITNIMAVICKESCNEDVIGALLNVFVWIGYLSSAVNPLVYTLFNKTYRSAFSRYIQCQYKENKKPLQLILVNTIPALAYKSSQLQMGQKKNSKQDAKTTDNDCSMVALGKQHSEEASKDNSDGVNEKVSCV
A further data set deals with mouse lymphoma. Description: Mouse lymphoma assay. Type of data set: cell-based.
Data set [10] has as its system CYP1A2, CYP2A6, CYP2C9, and CYP2C19. As to the kind of experiment: CYP substrate studies in vitro. It counts as in vitro ADME, human.
Data set [11] relates to pregnant mice, rats and rabbits. As to the kind of experiment: Reproduction toxicity studies with orally administered risperidone. Type of data set: in vivo. The text has this: Increased neuronal cell death occurred in the fetal brains of the offspring of pregnant rats treated at 0.5 to 1.2 times the MRHD; the postnatal development and growth of the offspring was delayed.

For the next data set, the system named is Juvenile dogs. As to the kind of experiment: Juvenile dog study with oral risperidone, 40 weeks.
The next data set relates to Beagle dogs. Description: Subchronic study in Beagle dogs with risperidone. To be noted: all doses tested ([…]-5.0 mg/kg). Type of data set: in vivo.
Excerpt: as §1

Data set [12] is described as follows: Solubility in solvents and water. Type of data set: physicochemical.

P-glycoprotein (P-gp), sequence (P08183 whole entry): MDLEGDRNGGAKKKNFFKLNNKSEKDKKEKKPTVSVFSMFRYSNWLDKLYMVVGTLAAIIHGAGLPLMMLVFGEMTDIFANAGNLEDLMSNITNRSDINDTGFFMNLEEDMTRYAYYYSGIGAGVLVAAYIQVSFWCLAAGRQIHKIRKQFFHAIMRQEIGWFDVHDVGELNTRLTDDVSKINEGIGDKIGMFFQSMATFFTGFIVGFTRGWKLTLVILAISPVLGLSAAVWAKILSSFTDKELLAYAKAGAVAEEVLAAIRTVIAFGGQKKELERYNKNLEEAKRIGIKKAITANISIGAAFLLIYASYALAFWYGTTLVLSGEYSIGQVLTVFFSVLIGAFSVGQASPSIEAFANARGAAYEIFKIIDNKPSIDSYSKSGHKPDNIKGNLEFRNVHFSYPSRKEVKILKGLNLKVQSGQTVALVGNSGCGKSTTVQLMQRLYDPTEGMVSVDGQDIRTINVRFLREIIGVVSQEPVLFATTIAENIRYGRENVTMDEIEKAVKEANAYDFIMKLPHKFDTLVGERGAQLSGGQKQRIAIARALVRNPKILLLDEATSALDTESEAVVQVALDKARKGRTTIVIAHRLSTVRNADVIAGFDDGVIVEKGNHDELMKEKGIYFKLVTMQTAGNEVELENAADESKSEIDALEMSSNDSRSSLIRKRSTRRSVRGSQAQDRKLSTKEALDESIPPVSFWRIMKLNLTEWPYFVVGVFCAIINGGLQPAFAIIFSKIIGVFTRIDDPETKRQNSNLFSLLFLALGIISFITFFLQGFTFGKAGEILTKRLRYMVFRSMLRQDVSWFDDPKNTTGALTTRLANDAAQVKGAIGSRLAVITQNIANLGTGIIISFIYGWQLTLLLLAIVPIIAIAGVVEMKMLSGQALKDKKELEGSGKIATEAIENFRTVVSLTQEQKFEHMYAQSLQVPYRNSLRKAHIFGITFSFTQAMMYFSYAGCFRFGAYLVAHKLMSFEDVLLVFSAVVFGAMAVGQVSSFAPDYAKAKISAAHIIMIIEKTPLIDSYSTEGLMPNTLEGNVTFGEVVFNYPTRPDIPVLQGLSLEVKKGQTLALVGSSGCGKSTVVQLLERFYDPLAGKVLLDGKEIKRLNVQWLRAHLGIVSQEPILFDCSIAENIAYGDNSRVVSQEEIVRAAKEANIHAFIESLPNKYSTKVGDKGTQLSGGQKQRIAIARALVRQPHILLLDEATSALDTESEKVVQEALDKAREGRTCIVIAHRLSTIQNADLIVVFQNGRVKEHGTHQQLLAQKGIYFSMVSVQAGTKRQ
central dopamine D2 receptor, sequence (P14416 whole entry): as the sequence (P14416 whole entry) above
β1-adrenergic receptor, sequence (P08588 whole entry): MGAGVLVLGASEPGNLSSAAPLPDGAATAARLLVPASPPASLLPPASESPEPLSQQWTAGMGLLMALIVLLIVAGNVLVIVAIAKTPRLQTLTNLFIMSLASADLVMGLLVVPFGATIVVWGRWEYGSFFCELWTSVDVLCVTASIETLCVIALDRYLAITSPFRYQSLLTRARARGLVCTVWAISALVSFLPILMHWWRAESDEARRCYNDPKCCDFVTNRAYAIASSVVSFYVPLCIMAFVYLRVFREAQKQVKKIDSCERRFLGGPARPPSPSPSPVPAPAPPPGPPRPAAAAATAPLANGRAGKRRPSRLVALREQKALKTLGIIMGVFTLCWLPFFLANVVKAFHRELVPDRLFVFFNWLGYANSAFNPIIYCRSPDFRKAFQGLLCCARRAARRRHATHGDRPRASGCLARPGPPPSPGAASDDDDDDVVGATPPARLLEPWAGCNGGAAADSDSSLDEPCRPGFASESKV

As usually defined, the Ki is a measure of affinity in units of concentration, obtained from inhibition or displacement. Read a high Ki as weaker binding. As a reminder, the fraction unbound is the share of the substance not bound to proteins or other matrix. A high value points to much free substance. The term Cmax denotes the peak of the concentration-time curve. `Cc1nc2n(c(=O)c1CCN1CCC(c3noc4cc(F)ccc34)CC1)CCCC2O` (stereo not drawn) [paliperidone]: the “exposure without increases in fetal abnormalities” value in [1] is listed as “up to 8 times the oral MRHD of 12 mg”. Also, in data set [2] (one week after single oral dose of 1 mg), the “dose excreted unchanged into urine” value was determined as 59%. The “administered radioactivity recovered in the feces” value in data set [2] (single oral dose of 1 mg) is reported as 11%. In data set [2] (single oral dose of 1 mg), the “administered radioactivity recovered in urine” value is reported as “Approximately 80%”. The Ki was 1.6 to 2.8 nM in [3], 4 nM on α1 adrenergic receptor, 17 nM at α2 adrenergic receptor and 0.8 to 1.2 nM on serotonin 5HT2A receptor. The affinity result (in data set [4]; at β2-adrenergic receptor; on β1-adrenergic receptor) was “no appreciable affinity” in each case. In addition, the genotoxicity result in the data set with bacteria, in the data set on rat bone marrow and in the data set with mouse lymphoma was “not genotoxic” each time. Further, the “central D2 receptor occupancy” value in [5] is reported as 60%. Moreover, the fraction unbound in the data set “Plasma protein binding” was 0.26. Further, the “oral doses at which percentage of treated female rats that became pregnant was not affected” value with rats (2 times the oral MRHD of 12 mg) is “up to 2.5 mg/kg/day”. The “dose with increased pre- and post-implantation loss and slightly decreased live embryos” value with rats (female, rat, in vivo, po) stood at 2.5 mg/kg. Moreover, in the data set with rats (half of the oral MRHD of 12 mg), the “oral dose at which these parameters were not affected” value is 0.63 mg/kg. Besides, the “oral doses at which fertility of male rats was not affected” value in the data set with rats (mg/m^2) is “up to 2 times the oral MRHD of 12 mg/day”. In data set [6], the “increase of Cmax and AUC compared to young subjects” value amounted to 1.2 fold. Further, the “increase in Cmax and AUC of paliperidone” value in data set [7] (single 12 mg extended-release tablet with divalproex sodium ER two 500 mg tablets once daily) is “approximately 50%”. Moreover, the “increase in renal clearance of paliperidone” value in [7] (with carbamazepine) stood at 35%. Further, the “change in mean Cmax and AUC at steady-state” value in data set [7] (with paroxetine 20 mg/day oral) was “increase in mean Cmax and AUC values”. Also, in data set [8], the “highest estimated ingestion in overdose” value was 405 mg. Further, the P-gp inhibition entry at P-glycoprotein (P-gp) (at high concentrations) was “weak inhibitor”. On P-glycoprotein (P-gp) (in vitro), the P-gp substrate result was “substrate of P-glycoprotein (P-gp)”. Moreover, the “inhibition of metabolism of drugs metabolized by cytochrome P450 isozymes” value in data set [9] is recorded as “does not substantially inhibit”. The compound further returned a peak concentration (Cmax) in “clinical” of 35 ng/mL. Besides, the “no-effect dose for reversible impairment of learning and memory” value with juvenile rats (females only, oral, days 24 to 73 of age) is listed as 0.63 mg/kg/day. Further, the “doses without other consistent effects on neurobehavioral or reproductive development” value with juvenile rats (highest dose tested) is given as at most 2.5 mg/kg/day. Also, the “substrate of CYP isozymes” value in [10] was “not a substrate for CYP1A2”; in data set [10] (listed as Paliperidone) it was “not a substrate”.

Take `Cc1nc2n(c(=O)c1CCN1CCC(c3noc4cc(F)ccc34)CC1)CCCC2` [risperidone]: in [11] (pregnant mice), the maternal toxicity is 4 times the MRHD. The “learning impaired in adult offspring” value in data set [11] (pregnant rats) amounted to 0.6 times the MRHD. Also, in data set [11] (rat reproduction studies, mg/m^2), the “oral doses at which pup deaths occurred” value is given as “less than the MRHD”. For the same compound, in data set [11] (rats and rabbits, embryo-fetal developmental toxicity), the “doses with no evidence of teratogenicity” value is on record as “up to 6 times the MRHD of 16 mg/day”. Besides, the “no-effect dose for decreased bone length and density” value with Juvenile dogs is 0.31 mg/kg/day. The “effect on serum testosterone and sperm” value with Beagle dogs is “decreases in serum testosterone and in sperm motility and concentration”.

With `CCCCCCCCCCCCCCCC(=O)OC1CCCn2c1nc(C)c(CCN1CCC(c3noc4cc(F)ccc34)CC1)c2=O` (racemic) [paliperidone palmitate, (±)-3-[2-[4-(6-fluoro-1,2-benzisoxazol-3-yl)-1-piperidinyl]ethyl]-6,7,8,9-tetrahydro-2-methyl-4-oxo-4H-pyrido[1,2-c]pyrimidin-9-yl hexadecanoate], in the data set with bacteria, the genotoxicity result is listed as “no genotoxicity”. In [12], the “solubility in ethanol and methanol” value is “very slightly soluble”; the “solubility in ethyl acetate” value was “slightly soluble”; the “solubility in polyethylene glycol 400 and propylene glycol” value was “practically insoluble”; the water solubility entry is on record as “extreme low water solubility”. In addition, in the data set with mouse lymphoma, the genotoxicity entry was “no genotoxicity”.

(Values after patent publication US20230085549A1 (Janssen Pharmaceutica NV, priority 2021, published 2023).)
